# Assay results as given in patent US12195490B2, “STRAD-binding agents and uses thereof” (The Regents of the University of California, priority 2020, dated 2025).
# Where a name gives a salt, the structure may show the parent alone.
# System: ACHN cell line
# Experiment: drug screen of the SelleckChem kinase inhibitor library with and without 5 uM SU-329, Cell-Titer Glo after 5 days
# Format: cell-based
# Conditions: not given
row,Compound,log2fc
1,CHIR-98014,3.928
2,"N#CC(=C(/N)Sc1ccccc1N)/C(C#N)=C(\N)Sc1ccccc1N [U0126-EtOH, U0126, reference compound]",−0.3988

# Same assay, conditions: kinase inhibitor at 200 nM with and without 5 uM SU329; ACHN cell line; 5 days; Cell-Titer Glo
row,Compound,log2fc
1,CO[C@H]1C[C@@H]2CC[C@@H](C)[C@@](O)(O2)C(=O)C(=O)N2CCCC[C@H]2C(=O)O[C@H]([C@H](C)C[C@@H]2CC[C@@H](OCCO)[C@H](OC)C2)CC(=O)[C@H](C)/C=C(\C)[C@@H](O)[C@@H](OC)C(=O)[C@H](C)C[C@H](C)/C=C/C=C/C=C/1C [Everolimus (RAD001)],−1.364
2,"CN(C)C/C=C/C(=O)Nc1cc2c(Nc3ccc(F)c(Cl)c3)ncnc2cc1O[C@H]1CCOC1 [Afatinib (BIBW2992), afatinib, reference compound]",0.04313
3,COc1ccc2c(c1)c(C1=C(c3c[nH]c4ccccc34)C(=O)NC1=O)cn2CCCN(C)C [Go 6983],0.08992
4,O=C1NC(=O)[C@@H](c2cn3c4c(cccc24)CCC3)[C@@H]1c1c[nH]c2ccccc12 [Tivantinib (ARQ 197)],0.2709
5,Cc1[nH]c(/C=C2\C(=O)Nc3ccc(S(=O)(=O)N(C)c4cccc(Cl)c4)cc32)c(C)c1C(=O)N1CCN(C)CC1 [SU11274],0.1013
6,KX2-391,0.3892
7,"Cn1cnc2c(F)c(Nc3ccc(Br)cc3Cl)c(C(=O)NOCCO)cc21 [Selumetinib (AZD6244), selumetinib, reference compound]",0.357
8,Cl.Cl.O=S(=O)(NCCNC/C=C/c1ccc(Br)cc1)c1cccc2cnccc12 [H 89 2HCl],−0.01404
9,"CCN1CCN(Cc2ccc(-c3cc4c(N[C@H](C)c5ccccc5)ncnc4[nH]3)cc2)CC1 [AEE788 (NVP-AEE788), AEE788, reference compound]",0.07427
10,CC(C)(C)c1cnc(CSc2cnc(NC(=O)C3CCNCC3)s2)o1 [SNS-032 (BMS-387032)],−1.028
11,N#CC[C@H](C1CCCC1)n1cc(-c2ncnc3[nH]ccc23)cn1 [Ruxolitinib (INCB018424)],−0.1253
12,Cc1[nH]c(/C=C2\C(=O)Nc3ccc(S(=O)(=O)Cc4c(Cl)cccc4Cl)cc32)c(C)c1C(=O)N1CCC[C@@H]1CN1CCCC1 [PHA-665752],0.1781
13,CCc1cncnc1N1CCN(Cc2nc3ccc(C(F)(F)F)cc3[nH]2)CC1 [PF-4708671],0.5187
14,C[C@@H]1CCN(C(=O)CC#N)C[C@@H]1N(C)c1ncnc2[nH]ccc12.O=C(O)CC(O)(CC(=O)O)C(=O)O [Tofacitinib (CP-690550) Citrate],0.3512
15,COc1cc2c(Oc3ccc4[nH]c(C)cc4c3F)ncnc2cc1OCCCN1CCCC1 [Cediranib (AZD2171)],0.01224
16,O=c1cc(-c2cccc3c2Sc2ccccc2S3)oc(N2CCOCC2)c1 [KU-55933 (ATM Kinase Inhibitor)],0.3053
17,CNC(=O)c1cc(Oc2ccc(NC(=O)Nc3ccc(Cl)c(C(F)(F)F)c3)c(F)c2)ccn1 [Regorafenib (BAY 73-4506)],0.8333
18,CC[C@@H]1C(=O)N(C)c2cnc(Nc3ccc(C(=O)N[C@H]4CC[C@H](N5CCN(CC6CC6)CC5)CC4)cc3OC)nc2N1C(C)C [Volasertib (BI 6727)],0.6372
19,COc1cc(Nc2c(C#N)cnc3cc(OCCCN4CCN(C)CC4)c(OC)cc23)c(Cl)cc1Cl [Bosutinib (SKI-606)],−0.1583
20,Cc1nc(Nc2cnn(C3CCNCC3)c2)nc2c1N(C)C(=O)c1cc3ccccc3cc1N2C [HTH-01-015],0.3141
21,"C=CC(=O)Nc1cccc(Nc2nc(Nc3ccc(N4CCN(C(C)=O)CC4)cc3OC)ncc2C(F)(F)F)c1 [Rociletinib (CO-1686, AVL-301)]",−0.001899
22,O=C(c1cccc(Cl)c1F)N1CCN(Cc2cccc(Nc3nccs3)n2)CC1 [MK-8745],−0.3779
23,Cn1ncc(Cl)c1-c1cc(C(=O)N[C@H](CN)Cc2ccc(F)c(F)c2)oc1Cl [Uprosertib (GSK2141795)],−1.387

row,Compound,log2fc
1,O=C(Nc1cc(C(F)(F)F)cc(C(F)(F)F)c1)c1cc(Cl)ccc1O [IMD 0354],0.2086
2,COc1cc2nccc(Oc3ccc(NC(=O)Nc4cc(C)on4)c(Cl)c3)c2cc1OC [Tivozanib (AV-951)],0.798
3,C=CC(=O)N1CCC[C@@H](n2nc(-c3ccc(Oc4ccccc4)cc3)c3c(N)ncnc32)C1 [Ibrutinib (PCI-32765)],1.289
4,"CS(=O)(=O)CCNCc1ccc(-c2ccc3ncnc(Nc4ccc(OCc5cccc(F)c5)c(Cl)c4)c3c2)o1 [Lapatinib (GW-572016) Ditosylate, lapatinib, reference compound]",0.212
5,"COc1cc2ncnc(Nc3cccc(Cl)c3)c2cc1OC [AG-1478 (Tyrphostin AG-1478), AG-1478, reference compound]",0.2903
6,COc1ccc(COc2cc3oc(=O)c4cc(C(C)O)ccc4c3cc2OC)cc1 (stereo not drawn) [Palomid 529 (P529)],0.3192
7,Nc1cccc(-c2cc3c(Oc4cccc(O)c4)ncnc3[nH]2)c1 [TWS119],0.52
8,CN1CCC(COc2cnc(-c3cccc(Cn4nc(-c5cccc(C#N)c5)ccc4=O)c3)nc2)CC1 [Tepotinib (EMD 1214063)],0.04059
9,"Cc1ccc(NC(=O)c2ccc(CN3CCN(C)CC3)cc2)cc1Nc1nccc(-c2cccnc2)n1 [Imatinib Mesylate (STI571), imatinib, reference compound]",0.1536
10,COCCOc1ccc2c(c1)ncn2-c1ccc2cccc(N3CCC(N)CC3)c2n1 [CP-673451],0.4234
11,O=C(NCc1cccc(O)c1)Nc1nc(-c2ccncc2)cs1 [RKI-1447],−0.8453
12,CCc1cnn2c(NCc3ccc[n+]([O-])c3)cc(N3CCCC[C@H]3CCO)nc12 [Dinaciclib (SCH727965)],1.402
13,OCCn1cc(-c2ccc3c(c2)CC/C3=N\O)c(-c2ccncc2)n1 [GDC-0879],0.3592
14,Cc1ccc(C(=O)Nc2ccc(CN3CCN(C)CC3)c(C(F)(F)F)c2)cc1C#Cc1cnc2cccnn12 [Ponatinib (AP24534)],−0.4485
15,C=CC(=O)Nc1cccc(Nc2nc(Nc3ccc(NC4CN(CCF)C4)cc3OC)ncc2C(F)(F)F)c1 [CNX-2006],0.1218
16,S-Ruxolitinib (INCB018424),−0.1855
17,NC1(Cc2ccc(Cl)cc2)CCN(c2ncnc3[nH]ccc23)CC1 [CCT128930],−0.2364
18,CN1CCC(CNc2ccc3ncc(-c4cccc(OC(F)(F)F)c4)n3n2)CC1 [SGI-1776 free base],−0.0254
19,COc1ccc(-c2ccc3c(N4CCOC[C@@H]4C)nc(N4CCOC[C@@H]4C)nc3n2)cc1CO [AZD8055],0.1024
20,COc1ccc(-c2cc3c(C)nc(N)nc3n([C@H]3CC[C@H](OCCO)CC3)c2=O)cn1 [PF-04691502],−0.5101
21,CNc1nc(-c2ccc3c(N)n[nH]c3c2)cc(N2C[C@@H](C(=O)NC3CCCCC3)CC[C@H]2C)n1 [GSK2334470],−1.111
22,CC(C)NC[C@@H](C(=O)N1CCN(c2ncnc3c2[C@H](C)C[C@H]3O)CC1)c1ccc(Cl)cc1 [Ipatasertib (GDC-0068)],−0.5082
23,COc1cc2nccc(Oc3ccc(NC(=O)Nc4ccc(F)cc4F)c(F)c3)c2cc1OC [Ki8751],0.1011

row,Compound,log2fc
1,Cc1c(NC(=O)OC[C@@H]2COCCN2)cn2ncnc(Nc3ccc4c(cnn4Cc4cccc(F)c4)c3)c12 [AC480 (BMS-599626)],0.6806
2,Fc1cc(-c2cccc3ncc(-c4cnn(C5CCNCC5)c4)nc23)cc(F)c1CN1CCOCC1 [NVP-BSK805 2HCl],−0.09499
3,Cc1c(F)cc(C(=O)NC2CC2)cc1-c1ccc(C(=O)NCC(C)(C)C)cn1 [Losmapimod (GW856553X)],−0.5236
4,O=C1NC(=O)/C(=C/c2ccc(-c3ccc(F)cc3O)o2)S1 [AS-252424],−0.1563
5,O=c1cc(N2CCOCC2)oc2c(-c3ccccc3)cccc12 [LY294002],0.5337
6,Cn1cnc(N)c2ncnc1-2 [3-Methyladenine (3-MA)],0.3232
7,"Cc1cnc(Nc2ccc(OCCN3CCCC3)cc2)nc1Nc1cccc(S(=O)(=O)NC(C)(C)C)c1 [Fedratinib (SAR302503, TG101348)]",−0.003444
8,Nc1ccc(C(=O)Nc2cccc(-c3nc(N4CCOCC4)c4oc5ncccc5c4n3)c2)cn1 [YM201636],−0.5268
9,Cc1ccc(C(=O)Nc2cccc(C(F)(F)F)c2)cc1Nc1nc(-c2cccnc2)nc2c1cnn2C [NVP-BHG712],0.02396
10,Cn1cc(-c2ccc3ncc(Cc4ccc5ncccc5c4)n3n2)cn1 [NVP-BVU972],0.5846
11,COc1cc(C(=O)NC2CCN(C)CC2)ccc1Nc1ncc2c(n1)N(C1CCCC1)CC(F)(F)C(=O)N2C [Ro3280],0.4269
12,O=C1Nc2cc(Br)ccc2/C1=C1/Nc2ccccc2/C1=N\O [BIO],−0.1795
13,Cc1ncc(-c2ccnc(Nc3ccc(S(C)(=O)=O)cc3)n2)n1C(C)C [AZD5438],1.871
14,NC(=O)c1cccc(-c2cc(Nc3ccc(OC(F)(F)F)cc3)ncn2)c1 [GNF-2],0.1337
15,C[C@@]1(C(=O)Nc2ccc(F)nc2)CCCN1c1nc(Nc2cc(C3CC3)n[nH]2)c2cccn2n1 [BMS-754807],−1.139
16,"C=CC(=O)Nc1ccc2ncnc(Nc3ccc(OCc4cccc(F)c4)c(Cl)c3)c2c1 [AST-1306, reference compound]",0.0584
17,CC(C)(C)c1cc(C=C(C#N)C#N)cc(C(C)(C)C)c1O [Tyrphostin 9],−0.5358
18,"CO[C@H]1C[C@@H]2CC[C@@H](C)[C@@](O)(O2)C(=O)C(=O)N2CCCC[C@H]2C(=O)O[C@H]([C@H](C)C[C@@H]2CC[C@@H](OP(C)(C)=O)[C@H](OC)C2)CC(=O)[C@H](C)/C=C(\C)[C@@H](O)[C@@H](OC)C(=O)[C@H](C)C[C@H](C)/C=C/C=C/C=C/1C [Ridaforolimus (Deforolimus, MK-8669)]",−1.384
19,O=C1Nc2ccc(I)cc2/C1=C/c1cc(Br)c(O)c(Br)c1 [GW5074],0.4071
20,CCCS(=O)(=O)Nc1ccc(F)c(C(=O)c2c[nH]c3ncc(Cl)cc23)c1F [PLX-4720],−0.05066
21,CNC(=O)c1c(F)cccc1Nc1nc(Nc2cc3c(cc2OC)CCN3C(=O)CN(C)C)nc2[nH]ccc12 [GSK1838705A],−0.03081
